The results in this text go back to patent publication US7674954B2, “DNA constructs that contain Helianthus annuus Hahb-10 gene coding sequence, method for generating plants with a shortened life cycle and a high tolerance to herbicidal compounds and transgenic plants with that sequence” (Universidad Nacional del Litoral, priority 2006, dated 2010).

The subject of experiment [1] is Hahb-10 transcript levels. Briefly: Northern blot of Hahb-10 transcript levels in treated sunflower seedlings. The experiment is classed as in vivo, Helianthus annuus. As for the experimental part:
2A: Total RNA samples (20 μg each) extracted from 4-day-old seedlings subjected to different treatments as described later were hybridized with a ^32P-labeled Hahb-10 cDNA specific probe (A, upper panel). The same filter was hybridized with an rRNA probe as a control for RNA loading and transfer. Spots obtained with the specific probe were quantified in reference to their rRNA using Image Pro Plus software. […] Quantitation of the signals has been done taking as standard value the signal obtained in these seedlings because the signal obtained in control seedlings was almost not detectable by the software used for this purpose. 2B: Total RNA samples (20 μg each) extracted from 7-day-old seedlings grown in normal illumination conditions (lane 1), in the dark (lane 2), or under continuous illumination at 40 cm from the light source applied to 4-day-old seedlings germinated in the dark during 3 additional days (lane 3) were analyzed by electrophoresis, transferred onto nylon membranes and hybridized with a ^32P-labelled Hahb-10 cDNA specific probe (upper panel). The same filter was hybridized with an rRNA probe as a control for RNA loading and transfer (lower panel). […]

Experiment [2] deals with 35S-Hahb10 transgenic Arabidopsis plants. Nature of the experiment: Stem elongation after gibberellin spraying, Hahb-10 overexpressing plants. The experiment is classed as in vivo, Arabidopsis thaliana. As for the experimental part: (§1) Stem height was measured with a ruler in non transformed (1) or 35S-Hahb10 transgenic plants (2: line A; 3: line B and 4: line C). Grey bars represent three transgenic lines and white bars represent wild-type plants. Right series in each panel represent GA3 treated plants while left series represent their non-treated counterparts. […] Arabidopsis transgenic or wild-type plants were grown under normal illumination conditions for 15 days. After this, the plants were sprayed with 200 μM GA3. This treatment was repeated at day 25. Stem length was measured in 20- and 30-day-old plants with a ruler. […] In order to investigate the response of Hahb-10 overexpressing lines to this hormone, we treated plants with 200 μM gibberellins as described above.

The test system of experiment [3] is non-transformed (wild-type) Arabidopsis plants. Briefly: Stem elongation after gibberellin spraying, non-transformed plants. The experiment is classed as in vivo, Arabidopsis thaliana. As for the experimental part: as §1
For experiment [4], the system named is wild-type Arabidopsis thaliana. Briefly: Herbicide (methyl viologen) spraying, non-transformed plants. The experiment is classed as in vivo. To be noted: 10 to 30 μM methyl viologen sprayed on 21-day-old plants, correlating to concentration. As for the experimental part:
(§2) Treatments with the herbicide Paraquat were carried out by growing transgenic and wild-type 21-day-old plants under normal conditions and spraying them with methyl viologen at concentrations of 10, 20 or 30 μM.
(§3) In order to study the effect of Hahb-10 overexpression on the tolerance to herbicides, transgenic and wild-type 21-day-old Arabidopsis thaliana were grown under normal conditions and were sprayed with methyl viologen at concentrations of 10, 20 or 30 μM. Once sprayed, they were left at the same illumination and temperature conditions for 24 hours and, at that time, leaf impairment was easily observable. One week after MV treatment, chlorophyll content in the leaves from both genotypes was analyzed. Plants were allowed to recover for three days and the percentage of survivors, either wild-type or transgenic ones expressing the Hahb-10 gene, was recorded.

Experiment [5] concerns transgenic Arabidopsis thaliana expressing the Hahb-10 gene. Nature of the experiment: Herbicide (methyl viologen) spraying, Hahb-10 transgenic plants. The experiment is classed as in vivo. To be noted: 10 to 30 μM methyl viologen sprayed on 21-day-old plants; three independent transgenic lines; dose-dependent. The protocol:
as §2, §3

For `C=C1C[C@]23C[C@@]1(O)CC[C@H]2[C@@]12C=C[C@H](O)[C@@](C)(C(=O)O1)[C@H]2[C@@H]3C(=O)O` [gibberellins, gibberellic acid], the “Hahb-10 transcript levels raised with respect to the heat-shock treatment” value in experiment [1] (100 μM gibberellic acids, Northern blot normalised to rRNA) is 5 fold. Also, the “increase in stem length with respect to non-treated controls” value in experiment [2] (200 μM gibberellins sprayed, 5 days after the first treatment (20-day-old plants)) is 1.6 fold. The “stem elongation induction on average” value is 1.2 fold in experiment [2] (200 μM gibberellins, after the second treatment (30-day-old plants)) and 1.5 fold in experiment [3] (200 μM gibberellins, after the second treatment (30-day-old plants), wild-type plants). For the same compound, in experiment [3] (200 μM gibberellins sprayed, 5 days after the first treatment (20-day-old plants), non-transformed plants), the “increase in stem elongation with respect to non-treated controls” value was found to be 3.7 fold.

Turning to `C[n+]1ccc(-c2cc[n+](C)cc2)cc1` [methyl viologen], the “effect of herbicide treatment on plants” value in experiment [4] is recorded as “dramatically affected”; in experiment [5], “resistant”.

As to `OC[C@H]1O[C@@](CO)(O[C@H]2O[C@H](CO)[C@@H](O)[C@H](O)[C@H]2O)[C@@H](O)[C@@H]1O` [sucrose], in experiment [1] (sucrose 10% w/v, similar to slight enhancement by heat/cold shock, water stress, hypoxia), the “effect on Hahb-10 mRNA levels” value is listed as “produced a similar effect”.
